ChEMBL document CHEMBL3867433, “Synthesis and antimicrobial activity of styryl/pyrrolyl/pyrazolyl sulfonylmethyl-1,3,4-oxadiazolyl amines and styryl/pyrrolyl/pyrazolyl sulfonylmethyl-1,3,4-thiadiazolyl amines” (2016)
Converted amounts (≈) assume the structure as drawn.

What was measured:
Assay type in all cases: functional
[1] = tested on: Aspergillus niger; test: Antifungal activity against Aspergillus niger assessed as inhibition of spore germination at 12.5 ug/well after 48 hrs by agar well diffusion method; conditions: read-out: DIZ
[2] = tested on: Aspergillus niger; test: Antifungal activity against Aspergillus niger assessed as inhibition of spore germination at 25 ug/well after 48 hrs by agar well diffusion method; conditions: read-out: DIZ
[3] = tested on: Aspergillus niger; test: Antifungal activity against Aspergillus niger assessed as inhibition of spore germination at 50 ug/well after 48 hrs by agar well diffusion method; conditions: read-out: DIZ
[4] = tested on: Aspergillus niger; test: Antifungal activity against Aspergillus niger assessed as inhibition of spore germination at 100 ug/well after 48 hrs by agar well diffusion method; conditions: read-out: DIZ
[5] = Antifungal activity against Penicillium chrysogenum assessed as inhibition of spore germination at 12.5 ug/well after 48 hrs by agar well diffusion method
[6] = Antifungal activity against Penicillium chrysogenum assessed as inhibition of spore germination at 25 ug/well after 48 hrs by agar well diffusion method
[7] = Antifungal activity against Penicillium chrysogenum assessed as inhibition of spore germination at 50 ug/well after 48 hrs by agar well diffusion method
[8] = Antifungal activity against Penicillium chrysogenum assessed as inhibition of spore germination at 100 ug/well after 48 hrs by agar well diffusion method
[9] = tested on: Aspergillus niger; test: Antifungal activity against Aspergillus niger assessed as inhibition of spore germination after 48 hrs by broth dilution method
[10] = Antifungal activity against Penicillium chrysogenum assessed as inhibition of spore germination after 48 hrs by broth dilution method
[11] = tested on: Staphylococcus aureus; test: Antibacterial activity against Staphylococcus aureus at 12.5 ug/well after 24 hrs by agar well diffusion method; conditions: read-out: DIZ
[12] = tested on: Staphylococcus aureus; test: Antibacterial activity against Staphylococcus aureus at 25 ug/well after 24 hrs by agar well diffusion method; conditions: read-out: DIZ
[13] = tested on: Staphylococcus aureus; test: Antibacterial activity against Staphylococcus aureus at 50 ug/well after 24 hrs by agar well diffusion method; conditions: read-out: DIZ
[14] = tested on: Staphylococcus aureus; test: Antibacterial activity against Staphylococcus aureus at 100 ug/well after 24 hrs by agar well diffusion method; conditions: read-out: DIZ
[15] = tested on: Bacillus subtilis; test: Antibacterial activity against Bacillus subtilis at 12.5 ug/well after 24 hrs by agar well diffusion method; conditions: read-out: DIZ
[16] = tested on: Bacillus subtilis; test: Antibacterial activity against Bacillus subtilis at 25 ug/well after 24 hrs by agar well diffusion method; conditions: read-out: DIZ
[17] = tested on: Bacillus subtilis; test: Antibacterial activity against Bacillus subtilis at 50 ug/well after 24 hrs by agar well diffusion method; conditions: read-out: DIZ
[18] = tested on: Bacillus subtilis; test: Antibacterial activity against Bacillus subtilis at 100 ug/well after 24 hrs by agar well diffusion method; conditions: read-out: DIZ
[19] = tested on: Pseudomonas aeruginosa; test: Antibacterial activity against Pseudomonas aeruginosa at 12.5 ug/well after 24 hrs by agar well diffusion method; conditions: read-out: DIZ
[20] = tested on: Pseudomonas aeruginosa; test: Antibacterial activity against Pseudomonas aeruginosa at 25 ug/well after 24 hrs by agar well diffusion method; conditions: read-out: DIZ
[21] = tested on: Pseudomonas aeruginosa; test: Antibacterial activity against Pseudomonas aeruginosa at 50 ug/well after 24 hrs by agar well diffusion method; conditions: read-out: DIZ
[22] = tested on: Pseudomonas aeruginosa; test: Antibacterial activity against Pseudomonas aeruginosa at 100 ug/well after 24 hrs by agar well diffusion method; conditions: read-out: DIZ
[23] = tested on: Klebsiella pneumoniae; test: Antibacterial activity against Klebsiella pneumoniae at 12.5 ug/well after 24 hrs by agar well diffusion method; conditions: read-out: DIZ
[24] = tested on: Klebsiella pneumoniae; test: Antibacterial activity against Klebsiella pneumoniae at 25 ug/well after 24 hrs by agar well diffusion method; conditions: read-out: DIZ
[25] = tested on: Klebsiella pneumoniae; test: Antibacterial activity against Klebsiella pneumoniae at 50 ug/well after 24 hrs by agar well diffusion method; conditions: read-out: DIZ
[26] = tested on: Klebsiella pneumoniae; test: Antibacterial activity against Klebsiella pneumoniae at 100 ug/well after 24 hrs by agar well diffusion method; conditions: read-out: DIZ
[27] = tested on: Penicillium chrysogenum; test: Ratio of MFC to MIC for Penicillium chrysogenum
[28] = tested on: Pseudomonas aeruginosa; test: Ratio of MBC to MIC for Pseudomonas aeruginosa
[29] = tested on: Staphylococcus aureus; test: Antibacterial activity against Staphylococcus aureus after 24 hrs by broth dilution method
[30] = tested on: Bacillus subtilis; test: Antibacterial activity against Bacillus subtilis after 24 hrs by broth dilution method
[31] = tested on: Pseudomonas aeruginosa; test: Antibacterial activity against Pseudomonas aeruginosa after 24 hrs by broth dilution method
[32] = tested on: Klebsiella pneumoniae; test: Antibacterial activity against Klebsiella pneumoniae after 24 hrs by broth dilution method
[33] = tested on: Staphylococcus aureus; test: Bactericidal activity against Staphylococcus aureus after 24 hrs
[34] = tested on: Bacillus subtilis; test: Bactericidal activity against Bacillus subtilis after 24 hrs
[35] = tested on: Pseudomonas aeruginosa; test: Bactericidal activity against Pseudomonas aeruginosa after 24 hrs
[36] = tested on: Klebsiella pneumoniae; test: Bactericidal activity against Klebsiella pneumoniae after 24 hrs
[37] = tested on: Aspergillus niger; test: Fungicidal activity against Aspergillus niger assessed as inhibition of spore germination after 48 hrs
[38] = tested on: Penicillium chrysogenum; test: Fungicidal activity against Penicillium chrysogenum assessed as inhibition of spore germination after 48 hrs

SMILES	zone of inhibition at 12.5 µg/disc [1] [mm]	zone of inhibition at 25 µg/disc [2] [mm]	zone of inhibition at 50 µg/disc [3] [mm]	zone of inhibition at 100 µg/disc [4] [mm]	inhibition zone (IZ) [5] [mm]	inhibition zone (IZ) [6] [mm]	inhibition zone (IZ) [7] [mm]	inhibition zone (IZ) [8] [mm]	zone of inhibition at 12.5 µg/disc [11] [mm]	zone of inhibition at 25 µg/disc [12] [mm]	zone of inhibition at 50 µg/disc [13] [mm]	zone of inhibition at 100 µg/disc [14] [mm]	zone of inhibition at 12.5 µg/disc [15] [mm]	zone of inhibition at 25 µg/disc [16] [mm]	zone of inhibition at 50 µg/disc [17] [mm]	zone of inhibition at 100 µg/disc [18] [mm]	zone of inhibition at 12.5 µg/disc [19] [mm]	zone of inhibition at 25 µg/disc [20] [mm]	zone of inhibition at 50 µg/disc [21] [mm]	zone of inhibition at 100 µg/disc [22] [mm]	also measured
CC(=O)N1CCN(c2ccc(OCC3COC(Cn4ccnc4)(c4ccc(Cl)cc4Cl)O3)cc2)CC1 (stereo not drawn) [KETOCONAZOLE]	29	31	34	37	34	36	37	39	–	–	–	–	–	–	–	–	–	–	–	–	MIC [9]: 6.25 µg/mL (≈ 11.8 µM); MIC [10]: 12.5 µg/mL (≈ 23.5 µM)
Nc1nnc(CS(=O)(=O)c2n[nH]cc2-c2ccc(Cl)cc2)s1	24	26	28	30	31	33	35	38	21	22	23	25	26	27	28	30	24	26	28	31	zone of inhibition at 12.5 µg/disc [23]: 30 mm; zone of inhibition at 25 µg/disc [24]: 32 mm; zone of inhibition at 50 µg/disc [25]: 34 mm; zone of inhibition at 100 µg/disc [26]: 36 mm; Ratio [27]: >2; Ratio [28]: >2; MIC [29]: 50 µg/mL (≈ 141 µM); MIC [30]: 25 µg/mL (≈ 70.3 µM); MIC [31]: 12.5 µg/mL (≈ 35.1 µM); MIC [32]: 25 µg/mL (≈ 70.3 µM); MIC [9]: 25 µg/mL (≈ 70.3 µM); MIC [10]: 12.5 µg/mL (≈ 35.1 µM); MBC [33]: 200 µg/mL (≈ 562 µM); MBC [34]: 100 µg/mL (≈ 281 µM); MBC [35]: 50 µg/mL (≈ 141 µM); MBC [36]: > 100 µg/mL; MFC [37]: 100 µg/mL (≈ 281 µM); MFC [38]: 50 µg/mL (≈ 141 µM)
Nc1nnc(CS(=O)(=O)/C=C\c2ccccc2)o1	9	11	13	15	11	13	15	17	11	13	15	18	12	13	14	16	14	16	18	20	zone of inhibition at 12.5 µg/disc [23]: 15 mm; zone of inhibition at 25 µg/disc [24]: 17 mm; zone of inhibition at 50 µg/disc [25]: 19 mm; zone of inhibition at 100 µg/disc [26]: 21 mm
Nc1nnc(CS(=O)(=O)/C=C\c2ccccc2)s1	25	27	29	31	29	34	36	35	21	22	23	25	27	28	29	31	23	25	27	29	zone of inhibition at 12.5 µg/disc [23]: 27 mm; zone of inhibition at 25 µg/disc [24]: 29 mm; zone of inhibition at 50 µg/disc [25]: 31 mm; zone of inhibition at 100 µg/disc [26]: 33 mm
Cc1ccc(/C=C\S(=O)(=O)Cc2nnc(N)s2)cc1	22	24	26	28	25	27	29	31	19	20	21	23	25	26	27	29	21	23	25	27	zone of inhibition at 12.5 µg/disc [23]: 23 mm; zone of inhibition at 25 µg/disc [24]: 25 mm; zone of inhibition at 50 µg/disc [25]: 27 mm; zone of inhibition at 100 µg/disc [26]: 29 mm
O=C(N[C@H](CO)[C@H](O)c1ccc([N+](=O)[O-])cc1)C(Cl)Cl [CHLORAMPHENICOL]	–	–	–	–	–	–	–	–	30	32	35	37	32	34	36	40	25	27	29	32	zone of inhibition at 12.5 µg/disc [23]: 38 mm; zone of inhibition at 25 µg/disc [24]: 40 mm; zone of inhibition at 50 µg/disc [25]: 42 mm; zone of inhibition at 100 µg/disc [26]: 44 mm; MIC [29]: 6.25 µg/mL (≈ 19.3 µM); MIC [30]: 6.25 µg/mL (≈ 19.3 µM); MIC [31]: 6.25 µg/mL (≈ 19.3 µM); MIC [32]: 12.5 µg/mL (≈ 38.7 µM)
Cc1ccc(-c2c[nH]nc2S(=O)(=O)Cc2nnc(N)s2)cc1	21	23	25	27	28	30	32	34	16	17	18	20	21	22	23	25	20	22	24	26	zone of inhibition at 12.5 µg/disc [23]: 22 mm; zone of inhibition at 25 µg/disc [24]: 24 mm; zone of inhibition at 50 µg/disc [25]: 26 mm; zone of inhibition at 100 µg/disc [26]: 28 mm
Nc1nnc(CS(=O)(=O)c2c[nH]cc2-c2ccccc2)s1	12	14	16	18	25	27	29	31	17	19	22	24	20	21	22	24	19	21	23	25	zone of inhibition at 12.5 µg/disc [23]: 26 mm; zone of inhibition at 25 µg/disc [24]: 27 mm; zone of inhibition at 50 µg/disc [25]: 29 mm; zone of inhibition at 100 µg/disc [26]: 31 mm
